Measured values published in US11248022B2, “Glypican-3 peptide reagents and methods” (THE REGENTS OF THE UNIVERSITY OF MICHIGAN, priority 2017, dated 2022).
Ends that are not written are not given here.

Key:
Hep3B xenograft = assay: In vivo NIR laparoscopic imaging of HCC xenograft tumors; parameters: species or system mice
Description: Human HCC cells Hep3B and SK-Hep1 were cultured in Eagle's Minimum Essential Medium (EMEM) at 37° C. in 5% CO2, and supplemented with 10% fetal bovine serum (FBS) and 1% penicillin/streptomycin. Western blotting was performed to validate expression level of GPC3. Cells were diluted in growth factor reduced (GFR) Matrigel Matrix (Corning), and injected into one flank of female (to avoid male dominance within a cage) nude athymic mice (nu/nu, Jackson Laboratory) at 4 to 6 weeks of age with weight between 20 to 25 grams. ˜5×10^6 cells were implanted per mouse.
A standard surgical laparoscope (#49003 AA, HOPKINS® II Straight Forward Telescope 0°, Karl Storz) that is ˜10 mm in diameter and has a 31 cm length rigid sheath was adapted to collect reflectance and fluorescence concurrently. Nude mice with human HCC xenograft 2 weeks post implantation were tail vein injected with 200 μL 300 μM GPC3 peptide ALL*-Cy5.5. During imaging, the mice were anesthetized with inhaled isoflurane. We first used laparoscope with white light illumination to exam the xenograft. Laparoscopic images were taken two hours post injection in both fluorescence and reflection mode simultaneously with excitation solid state diode laser (660-S, Toptica Photonics) to deliver excitation at λex=660 nm into the fiber optic light guide. Images were collected at 5 frames/sec with a laser power of 1.2 mW. Hoechst 33342 (H1399, Life Technologies) at a dose of 10 mg/kg diluted in 200 μL of PBS was delivered intravenously via a tail vein injection to stain the cell nuclei 30 minutes before sacrificing the mouse. Xenograft tumors were resected and confocal fluorescence images were collected with Cy5.5 and DAPI filters 50 μm beneath the surface using a confocal microscope (Leica SPSX Upright 2-Photon Confocal Microscope). Following imaging, resected xenografts were fixed and formalin embedded for immunohistochemistry and H&E staining as described previously.
Fluorescence images of mouse HCC xenograft taken at 2 hrs post peptide injection were registered with corresponding reflectance images taken simultaneously. The fluorescence intensity of each pixel in the image was divided by intensity of corresponding pixel in the reflectance image in order to account for the difference in distance between each pixel and the laser source. A heat map image was generated from the resulting ratios at each pixel. Image segmentation was performed automatically by custom Matlab (Mathworks) software program using Ostu's Method [Otsu, Automatica, 11(285-296): 23-27 (1975)]. Target to background ratio of each processed image was calculated by dividing the average intensity of pixels inside the segmented tumor and that of those within 30 pixels outside of segmentation outline.

[1] = Histology of vital organs post-peptide administration (acute toxicity); assay type: in vivo, mice; conditions: 2 hours post-injection; brain, heart, lung, liver, spleen, kidney, stomach, intestine, cecum, colon
Description: Vital organs were harvested post peptide administration in mice to evaluate acute toxicity of peptide probe with histology observation. Mice bearing human HCC xenograft tumors were sacrificed 2 hours post-injection of ALL*-Cy5.5.

ALLANHEELFQT (SEQ ID NO: 1) peptide labeled with Cy5.5 via a GGGSK linker on the C-terminus (ALLANHEELFQTGGGSK-{Cy5.5}) [ALL*-Cy5.5]
staining of cell surface on excised tumor xenograft (confocal) (Hep3B xenograft; 40× magnification): intense staining
T/B ratio relative to QLE*-Cy5.5 (Hep3B xenograft; NIR laparoscope, 2 hours): 2.8 fold
target-to-background (T/B) ratio (Hep3B xenograft; NIR laparoscope, 2 hours after i.v. injection, n=8): 8.3±1.3
acute peptide toxicity on histology of vital organs [1]: No signs of acute peptide toxicity
